Tests used:
RAW 264.7 macrophages = test: TNFα secretion from RAW 264.7 macrophages (ELISA); type: cell-based, mouse; settings: RAW264.7 macrophages; compared with no treatment control
Method: RAW 264.7 macrophages (ATCC, VA, USA) were seeded in a 96 well plate at a density of 20,000 cells per well. Cells were incubated with 10 ng/mL R848 (Sigma, MO, USA) and/or 20 ng/mL ICG (Sigma, MO, USA) for 24 h. Ultrasound irradiation (frequency: 1 MHz; duty cycle: 50%; power: 2 W/cm^2) was applied to these cells for up to 5 min. TNFα secretion was analyzed by mouse TNFα DuoSet ELISA (R&D Systems, MN, USA) following the manufacturer's instructions. […] In some experiments, cells were also treated with 0.5, 1, or 2 mM of ROS scavenger N-acetyl-cysteine (Sigma, MO, USA) right before treatment with ultrasound.

[1] = Pharmacokinetic study after intravenous injection; type: in vivo; settings: C57BL/6 mice
Method: C57BL/6 mice were intravenously injected with free ICG or lipo-ICG (liposome encapsulated ICG). At predetermined time points (0.25, 1, 3, 7, and 24 h post injection), 50 ul blood were collected in Microvette 500 Z-gel tubes by submandibular bleeding and kept on ice. The samples were centrifuged at 10,000 g for 5 min at room temperature, and 10 ul of the serum were diluted to 100 ul with PBS and the fluorescence intensity was measured at Ex=780, Em=810 nm.

CT26 = test: Transwell co-culture assay, viability of CT26 tumor cells cocultured with RAW 264.7 macrophages (XTT); type: cell-based; settings: single component or component removed
Method: RAW 264.7 macrophages were seeded in a Transwell insert at a density of 200,000 cells per insert (Corning, N.Y., USA) and CT26 (ATCC, VA, USA) were seeded in the lower compartment at a density of 200,000 cells per well, which was separated by a porous membrane (well area: 0.3 cm^2, insert size: 6.5 mm). Cells were incubated with […] and/or 20 ng/mL ICG for 24 h. Ultrasound irradiation (frequency: 1 MHz; duty cycle: 50%; power: 2 W/cm^2) was performed for 5 min. The viability of tumor cells after treatment with different formulations in the absence or presence of ultrasound was determined by XTT Cell Proliferation Assay Kit (ATCC, VA, USA) following the manufacturer's instructions.

iBMDM = test: IL-1β secretion from iBMDM (ELISA); type: cell-based, mouse
Method: RAW 264.7 macrophages (ATCC, VA, USA) were seeded in a 96 well plate at a density of 20,000 cells per well. Cells were incubated with 10 ng/mL R848 (Sigma, MO, USA) and/or 20 ng/mL ICG (Sigma, MO, USA) for 24 h. Ultrasound irradiation (frequency: 1 MHz; duty cycle: 50%; power: 2 W/cm^2) was applied to these cells for up to 5 min. TNFα secretion was analyzed by mouse TNFα DuoSet ELISA (R&D Systems, MN, USA) following the manufacturer's instructions. To measure IL-1β secretion, immortal bone marrow derived macrophages or iBMDM (BCH, MA, USA)) were seeded in a 96 well plate at a density of 20,000 cells per well. Cells were incubated with 10 ng/mL PAPC (Avanti, AL, USA) and/or 20 ng/mL ICG for 24 h. Ultrasound irradiation (frequency: 1 MHz; duty cycle: 50%; power: 2 W/cm^2) was applied to these cells for up to 5 min. IL-1β secretion was analyzed by mouse IL-1β ELISA (Invitrogen, CA, USA) following the manufacturer's instructions. In some experiments, cells were also treated with 0.5, 1, or 2 mM of ROS scavenger N-acetyl-cysteine (Sigma, MO, USA) right before treatment with ultrasound.

[2] = Loading efficiency in liposomes; type: physicochemical; settings: sonosensitizer incubated with preformed liposomes at room temperature
Method: The lipid suspension was extruded through the 100 nm polycarbonate membrane using the extruder (Avanti, AL, USA) to obtain blank liposomes. Ethanol was removed by dialysis overnight at 4° C. To load the sonosensitizer in liposomes, ICG was firstly conjugated to a lipid tail such as DOPE before incubation with preformed blank liposomes at room temperature for 30 min. Unloaded ICG was removed by using the PD-10 column (GE Healthcare). To load PAPC (Avanti, AL, USA) in liposomes, the proper amount of PAPC in DMSO stock solution was incubated with liposomes containing ICG at room temperature for 30 min and the obtained formulation was used without further purification. To load R848 (Sigma, MO, USA) in liposomes, blank liposomes were firstly prepared in 250 mM ammonium sulfate, and the external ammonium sulfate was exchanged to 10% sucrose by dialysis overnight at 4° C., followed by incubation with R848 at 55° C. for 30 min and removal of unloaded R848 by dialysis overnight at 4° C. To measure the size of liposomes, 10 ul of liposomes were diluted to 2 mL with PBS and the size was measured with Zeta sizer. To measure the amount of ICG, 10 ul liposomes were added with 190 ul DMSO and the fluorescence was measured at Ex=780 nm, Em=810 nm.

Compound	TNFα release (RAW 264.7 macrophages)	detectability of ICG in serum after injection [1]	CT26 cell viability (CT26)	IL-1β release (iBMDM)	loading efficiency [2]	IL-1β release on ROS depletion (iBMDM; ROS scavenger added to PAPC+ICG+US)
CC1(C)C(/C=C/C=C/C=C/C=C2\N(CCCCS(=O)(=O)O)c3ccc4ccccc4c3C2(C)C)=[N+](CCCCS(=O)(=O)[O-])c2ccc3ccccc3c21 [ICG, indocyanine green]	didn't induce significant TNFα release	not detectable within a few minutes after injection	modest decrease of CT26 cell viability	didn't induce any detectable level of IL-1β	less than 20%	–
CC(=O)N[C@@H](CS)C(=O)O [NAC, N-acetyl-cysteine]	–	–	–	–	–	dose dependent reduction of IL-1β
CCCCC/C=C\C/C=C\C/C=C\C/C=C\CCCC(=O)O[C@H](COC(=O)CCCCCCCCCCCCCCC)COP(=O)([O-])OCC[N+](C)(C)C [PAPC, 1-palmitoyl-2-arachidonoyl-sn-glycero-3-phosphocholine]	–	–	–	didn't induce any detectable level of IL-1β	–	–

Source: patent US20220175926A1, “TARGETED SYNERGISTIC CANCER IMMUNOTHERAPY” (The Brigham and Women's Hospital, Inc., priority 2019, published 2022)
